From patent EP1147080B1 (Wyeth Holdings Corporation, priority 1999, dated 2000)
Like-named read-outs stand apart in the source and are kept apart here.

Legend:
MMP-9 = MMP-9 (Homo sapiens, UniProt P14780); assay: MMP-9 inhibition (thiopeptide or fluorescent peptide substrate); details: for inhibition at 10 µM: read-out: MMP9
Procedure: (§1) The enzyme activity is measured by the rate of the color increase. The thiopeptide substrate is made up fresh as a 20 mM stock in 100% DMSO and the DTNB is dissolved in 100% DMSO as a 100 mM stock and stored in the dark at room temperature. Both the substrate and DTNB are diluted together to 1 mM with substrate buffer (50 mM HEPES pH 7.5, 5 mM CaCl2) before use. The stock of enzyme is diluted with buffer (50 mM HEPES, pH 7.5, 5 mM CaCl2, 0.02% Brij) to the desired final concentration.
(§2) Alternatively, a fluorescent peptide substrate is used. In this test procedure, the peptide substrate contains a fluorescent group and a quenching group. Upon cleavage of the substrate by an MMP, the fluorescence that is generated is quantitated on the fluorescence plate reader. The assay is run in HCBC assay buffer (50mM HEPES, pH 7.0, 5 mM Ca^+2, 0.02% Brij, 0.5% Cysteine), with human recombinant MMP-1, MMP-9, or MMP-13. The substrate is dissolved in methanol and stored frozen in 1 mM aliquots. For the assay, substrate and enzymes are diluted in HCBC buffer to the desired concentrations. Compounds are added to the 96 well plate containing enzyme and the reaction is started by the addition of substrate.
(§3) For either the thiopeptide or fluorescent peptide test procedures, the slope of the line is calculated and represents the reaction rate. […] The mean (x±sem) of the control rate is calculated and compared for statistical significance (p<0.05) with drug-treated rates using Dunnett's multiple comparison test.

MMP-1 = target: T1, MMP-1 (Homo sapiens, UniProt P03956); assay: MMP-1 inhibition (thiopeptide or fluorescent peptide substrate); details: for inhibition at 10 µM: read-out: MMP1
T1 sequence (P03956 100-469): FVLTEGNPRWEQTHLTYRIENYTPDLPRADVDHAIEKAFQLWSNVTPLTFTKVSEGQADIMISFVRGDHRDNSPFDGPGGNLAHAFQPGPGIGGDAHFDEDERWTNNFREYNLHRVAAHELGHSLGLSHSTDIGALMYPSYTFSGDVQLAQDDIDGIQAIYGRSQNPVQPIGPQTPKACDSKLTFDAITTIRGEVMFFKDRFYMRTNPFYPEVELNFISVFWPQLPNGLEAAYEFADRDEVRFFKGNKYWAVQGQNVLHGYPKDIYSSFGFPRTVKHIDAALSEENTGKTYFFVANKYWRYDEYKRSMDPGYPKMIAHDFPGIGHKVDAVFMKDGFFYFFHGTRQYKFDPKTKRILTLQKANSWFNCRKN
Procedure: as §1, §2, §3

MMP-13 = MMP-13 (Homo sapiens, UniProt P45452); assay: MMP-13 inhibition (thiopeptide or fluorescent peptide substrate); format: biochemical; details: for inhibition at 10 µM / MMP13: % @ 10µM per footnote a; for inhibition at 1 µM: % at 1 um (specified in cell)
From the text: Alternatively, a fluorescent peptide substrate is used.

THP-1 cells = assay: Human monocytic THP-1 cell differentiation assay for soluble proteins (THP soluble protein assay), LPS-stimulated, TNF-α ELISA; format: cell-based; details: for inhibition at 3 µM: Homo sapiens, THP-1; at 3 uM; percent change from vehicle positive control; read-out: TNFalpha at 3 uM) THP (percent change); for THP (% inhibition): Table 1, concentration not given
From the text: Mitogenic stimulation of THP-1 cells cause differentiation into macrophage like cells with concomitant secretion of tumor necrosis factor (TNF-a) and TNF receptor (TNF-R p75/80 and TNF-R p55/60) and Interleukin-8 (IL-8), among other proteins. In addition, non-stimulated THP-1 cells shed both the p75/80 and the p55/60 receptors over time. The release of membrane bound TNF-a and possibly TNF-R p75/80 and TNF-R p55/60, but not IL-8, is mediated by an enzyme called TNF-α converting enzyme or TACE.
THP-1 cells (from ATCC) are a human monocytic cell line which were obtained from the peripheral blood of a person with acute monocytic leukemia. They can be grown in culture and differentiated into macrophage like cells by stimulation with mitogens.
Each vial of cells are cultured for about two weeks prior to being used for an assay and then are used for only 4 to 6 weeks to screen compounds.
Cell exposure to DMSO was limited to 0.1 % final concentration. […] Compounds can be evaluated for their effect on basal (non-stimulated) shedding of the receptors by replacing the LPS with […] of THP-1 media. Plates are placed into an incubator set at 5% CO2 and at 37°C. After 4 hours of incubation, […] of tissue culture supernatant (TCS) is removed for use in an TNF-α ELISA. Following 24 hours of incubation, […] of TCS is removed and used for analysis in TNF-R p75/80, TNF-R p55/60 and IL-8 ELISAs.
In addition, at the 24 hours timepoint, and the cells for each treatment group are collected by resuspension in 500 µl/well of THP-1 media and transferred into a FACS tube. […] The samples are run on a Becton Dickinson FaxCaliber FLOW cytometry machine and the amount of dye taken up by each cell is measured in the high red wavelength (FL3). Only cells with compromised membranes (dead or dying) can take up PI. The percent of live cells is calculated by the number of cells not stained with PI, divided by the total number of cells in the sample. The viability values calculated for the drug treated groups were compared to the viability value calculated for the vehicle treated mitogen stimulated group ("vehicle positive control") to determine the "percent change from control". This "percent change from control" value is an indicator of drug toxicity.
The quantity of soluble TNF-α, TNF-R p75/80 and TNF-R p55/60 and IL-8 in the TCS of the THP-1 cell cultures are obtained with commercially available ELISAs from R&D Systems, by extrapolation from a standard curve generated with kit standards. The number of cells that either take up or exclude PI are measured by the FLOW cytometry machine and visualized by histograms using commercially available Cytologic software for each treatment group including all controls.
Biological variability in the magnitude of the response of THP-1 cell cultures requires that experiments be compared on the basis of percent change from "vehicle positive control" for each drug concentration. Percent change in each soluble protein evaluated from the "vehicle positive control" was calculated for each compound concentration with the following formula: % Change =(pg/ml (compound) - pg/ml (veh pos control))/(pg/ml (veh pos control) - pg/ml (veh neg control))x 100 [formula]
For the soluble protein (TNF-a, p75/80, p55/60, IL-8) studies under stimulated conditions, the mean pg/ml of duplicate wells were determined and the results expressed as percent change from "vehicle positive control". For the soluble protein (p75/80 and p55/60 receptors) studies under non-stimulated conditions, the mean pg/ml of duplicate wells were determined and the results expressed as percent change from […] utilizing the following formula: % Change =(pg/ml (compound neg control) - pg/ml (veh neg control))/(pg/ml (veh neg control))X 100 [formula]
IC50 values for each compound are calculated by non-linear regression analysis using customized software utilizing the JUMP statistical package.

[1] = target: TNF-α converting enzyme (TACE) (Homo sapiens, UniProt P78536); assay: Test procedure for measuring TACE inhibition (fluorescent peptidyl substrate); format: biochemical
TNF-α converting enzyme (TACE), sequence (P78536 215-824): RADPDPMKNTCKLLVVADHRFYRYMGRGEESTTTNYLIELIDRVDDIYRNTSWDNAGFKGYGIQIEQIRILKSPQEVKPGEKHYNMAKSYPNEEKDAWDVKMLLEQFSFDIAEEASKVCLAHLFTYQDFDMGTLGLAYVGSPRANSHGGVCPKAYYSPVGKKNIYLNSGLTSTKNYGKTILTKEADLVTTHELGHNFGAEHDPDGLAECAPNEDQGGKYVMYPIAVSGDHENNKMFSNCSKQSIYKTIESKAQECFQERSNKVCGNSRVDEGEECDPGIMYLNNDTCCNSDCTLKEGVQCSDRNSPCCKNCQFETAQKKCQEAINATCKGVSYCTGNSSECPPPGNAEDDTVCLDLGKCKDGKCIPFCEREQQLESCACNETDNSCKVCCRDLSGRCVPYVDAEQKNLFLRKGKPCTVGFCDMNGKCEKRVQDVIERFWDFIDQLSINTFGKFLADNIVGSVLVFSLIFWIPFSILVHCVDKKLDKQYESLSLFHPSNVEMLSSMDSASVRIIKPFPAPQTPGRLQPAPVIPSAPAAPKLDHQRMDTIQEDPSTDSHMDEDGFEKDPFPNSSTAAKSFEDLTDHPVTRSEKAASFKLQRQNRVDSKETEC

[2] = second table, IC50 (nM) per footnote a

MMP-9, sequence (P14780 94-707): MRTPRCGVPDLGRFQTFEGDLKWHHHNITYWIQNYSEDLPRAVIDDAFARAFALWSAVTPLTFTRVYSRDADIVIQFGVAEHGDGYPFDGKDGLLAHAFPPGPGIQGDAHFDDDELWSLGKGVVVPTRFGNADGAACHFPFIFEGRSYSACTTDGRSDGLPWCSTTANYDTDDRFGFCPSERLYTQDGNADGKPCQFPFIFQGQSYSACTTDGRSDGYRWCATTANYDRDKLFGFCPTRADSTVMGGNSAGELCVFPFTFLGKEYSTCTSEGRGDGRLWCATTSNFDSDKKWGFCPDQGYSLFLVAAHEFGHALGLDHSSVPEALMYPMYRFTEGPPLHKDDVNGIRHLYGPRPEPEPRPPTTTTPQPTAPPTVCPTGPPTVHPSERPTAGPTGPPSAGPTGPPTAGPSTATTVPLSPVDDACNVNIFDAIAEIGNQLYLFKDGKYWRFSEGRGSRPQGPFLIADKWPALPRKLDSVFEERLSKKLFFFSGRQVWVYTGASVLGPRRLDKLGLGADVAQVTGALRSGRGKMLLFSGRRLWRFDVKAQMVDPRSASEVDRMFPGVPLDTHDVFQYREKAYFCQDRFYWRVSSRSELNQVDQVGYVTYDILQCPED

inhibition at 10 µM (MMP-13; read-out: MMP13) [%] | inhibition at 10 µM (MMP-1) [%] | IC50 (MMP-9) [nM] | IC50 (MMP-1) [nM] | SMILES | inhibition at 3 µM (THP-1 cells) [%] | also measured
 |  | 180 | 2000 | CC#CCOc1ccc(S(=O)(=O)C(C)(Cc2ccc(OCCN3CCCCC3)cc2)C(=O)NO)cc1 (stereo not drawn) [Example 1, 2-(4-But-2-ynyloxy-benzenesulfonyl)-N-hydroxy-2-methyl-3-[4-(2-piperidin-1-yl-ethoxy)-phenyl]-propionamide] |  | IC50 (MMP-13; Table 1, read-out: MMP13 IC50): 200 nM; IC50 ([1]; Table 1): 191 nM; THP (% inhibition) (THP-1 cells): 25%
 |  | 207 | 2200 | CC#CCOc1ccc(S(=O)(=O)C(C)(Cc2ccc(-c3ccccc3)cc2)C(=O)NO)cc1 (stereo not drawn) [Example 2, 3-Biphenyl-4-yl-2-(4-But-2-ynyloxy-phenylsulfonyl)-N-hydroxy-2-methyl-propionamide] |  | IC50 (MMP-13; Table 1, read-out: MMP13 IC50): 597 nM; IC50 ([1]; Table 1): 207 nM; THP (% inhibition) (THP-1 cells): 5%
 |  | 2510 | 10000 | CC#CCOc1ccc(S(=O)(=O)C(CCc2ccc(OCCN3CCCCC3)cc2)C(=O)NO)cc1 (stereo not drawn) [Example 71] | 11 | IC50 (MMP-13; IC50, read-out: MMP13): 894 nM
26.8 | 3 |  |  | CC#CCOc1ccc(SC(C(=O)NO)c2ccc(OC)cc2)cc1 (stereo not drawn) [Example 76, 2-{[4-(2-butynyloxy)phenyl]sulfanyl}-N-hydroxy-2-(4-methoxyphenyl) acetamide] | 15 | inhibition at 10 µM (MMP-9): 21.6%
56.8 | 23.3 |  |  | CC#CCOc1ccc(S(=O)(=O)C(C(=O)NO)c2ccc(OC)cc2)cc1 (stereo not drawn) [Example 79, 2-{[4-(2-butynyloxy)phenyl]sulfonyl}-N-hydroxy-2-(4-methoxyphenyl) acetamide] |  | IC50 [1, 2]: 48.1 nM; inhibition at 10 µM (MMP-9): 27.3%
 | 5.6 |  |  | CC#CCOc1ccc(S(=O)(=O)C(C(=O)NO)c2ccc3ccccc3c2)cc1 (stereo not drawn) [Example 116, 2-{[4-(2-butynyloxy)phenyl]sulfonyl}-2-(2-naphthyl)-N-hydroxyacetamide] | 7 | inhibition at 1 µM (MMP-13; read-out: MMP13): 33.6%; IC50 [1, 2]: 495 nM
50 | 9 |  |  | CC#CCOc1ccc(S(=O)(=O)C(C(=O)NO)C2CCN(Cc3ccc(OC)cc3)CC2)cc1 (stereo not drawn) [Example 119, 2-{[4-(2-butynyloxy)phenyl]sulfonyl}-N-hydroxy-2-[1-(4-methoxybenzyl)-4-piperidinyl] acetamide] | 30 | IC50 [1, 2]: 263 nM
 | 24 |  |  | CC#CCOc1ccc(S(=O)(=O)C(C(=O)NO)C2CCN(C(=O)c3ccccc3)CC2)cc1 (stereo not drawn) [Example 120, 2-(1-benzoyl-4-piperidinyl)-2-{[4-(2-butynyloxy)phenyl]sulfonyl}-N-hydroxyacetamide] | 63 | inhibition at 1 µM (MMP-13; read-out: MMP13): 51%; IC50 [1, 2]: 88.5 nM

Second part, the compound before the results:

SMILES | inhibition at 10 µM (MMP-13; read-out: MMP13) [%] | inhibition at 10 µM (MMP-1) [%] | IC50 (MMP-9) [nM] | IC50 (MMP-1) [nM] | inhibition at 3 µM (THP-1 cells) [%] | also measured
CC#CCOc1ccc([S+]([O-])[C@@H](C(=O)NO)c2ccc(OC)cc2)cc1 (single isomer, unassigned) [Example 77] |  |  |  |  |  | MMP9 (MMP-9): 45.40%; MMP1 (MMP-1; % @ 10µM per footnote a): 17.50%
CC#CCOc1ccc([S+]([O-])[C@H](C(=O)NO)c2ccc(OC)cc2)cc1 (single isomer, unassigned) [Example 78] | 54.5 | 5.9 |  |  | 13 | inhibition at 10 µM (MMP-9): 32.7%
CC#CCOc1ccc([S+]([O-])C(C(=O)NO)c2ccccc2)cc1 (single isomer, unassigned) [Example 113, S-2-{[4-(2-butynyloxy)phenyl]sulfinyl}-2-phenyl-N-hydroxyacetamide] |  |  |  |  |  | MMP13 (MMP-13): 59%; MMP9 (MMP-9): 25.70%; MMP1 (MMP-1): 6.20%
CC#CCOc1ccc(S(=O)(=O)C(C)(Cc2cccnc2)C(=O)NO)cc1 (stereo not drawn) [Example 3, 2-(4-But-2-ynyloxy-phenylsulfonyl)-N-hydroxy-2-methyl-3-pyridin-3-ylpropionamide] |  |  | 142 | 1400 |  | IC50 (MMP-13; Table 1, read-out: MMP13 IC50): 69 nM; IC50 ([1]; Table 1): 15.7 nM; THP (% inhibition) (THP-1 cells): 14%
CC#CCOc1ccc(SC(CCCCCC)C(=O)NO)cc1 (stereo not drawn) [Example 6, 2-(4-But-2-ynyloxy-phenylsulfanyl)-octanoic acid hydroxamide] |  |  | 3000 | 15000 |  | IC50 (MMP-13; Table 1, read-out: MMP13 IC50): 2000 nM; IC50 ([1]; Table 1): 105 nM; THP (% inhibition) (THP-1 cells): 5%
CC#CCOc1ccc([S@+]([O-])[C@@H](CCCCCC)C(=O)NO)cc1 [Example 7, (S)-2-[(R)-[4-(2-Butynyloxy)phenylsulfinyl)]-N-hydroxyoctanamide] |  |  | 1500 | 3000 |  | IC50 (MMP-13; Table 1, read-out: MMP13 IC50): 900 nM; IC50 ([1]; Table 1): 4.3 nM; THP (% inhibition) (THP-1 cells): 67%
CC#CCOc1ccc([S@@+]([O-])[C@@H](CCCCCC)C(=O)NO)cc1 [Example 8, (S)-2-[(S)-[4-(2-Butynyloxy)phenylsulfinyl)]-N-hydroxyoctanamide] |  |  | 1000 | 3200 |  | IC50 (MMP-13; Table 1, read-out: MMP13 IC50): 150 nM; IC50 ([1]; Table 1): 12.4 nM; THP (% inhibition) (THP-1 cells): 35%
CC#CCOc1ccc(S(=O)(=O)C(C(=O)NO)C2CCCCC2)cc1 (stereo not drawn) [Example 75, 2-{[4-(2-butynyloxy)phenyl]sulfonyl}-2-cyclohexyl-N-hydroxyacetamide] |  | 34.6 |  |  | 39 | IC50 (MMP-13; IC50, read-out: MMP13): 708 nM; inhibition at 10 µM (MMP-9): 68.2%
CC#CCOc1ccc(SC(C(=O)NO)c2ccc(F)cc2)cc1 (stereo not drawn) [Example 95] | 26 | 9 |  |  | -7 | inhibition at 10 µM (MMP-9): 5.7%
CC#CCOc1ccc([S+]([O-])C(C(=O)NO)c2ccc(F)cc2)cc1 (stereo not drawn) [Example 96] |  |  |  |  |  | MMP13 (MMP-13): 53.40%; MMP9 (MMP-9; % @ 10µM per footnote a): 0%; MMP1 (MMP-1; % @ 10µM per footnote a): 18.40%
CC#CCOc1ccc([S+]([O-])C(C(=O)NO)C(C)C)cc1 (stereo not drawn) [Example 108, R-2-{[4-(2-butynylaxy)phenyl]sulfinyl}-2-isopropyl-N-hydroxyacetamide] |  |  | 399 | 6480 |  | 
CC#CCOc1ccc(S(=O)(=O)C(C(=O)NO)C2CCN(C(=O)OC(C)(C)C)CC2)cc1 (stereo not drawn) [Example 117, Tert-butyl-4-[1-{[4-(2-butynyloxy)phenyl]sulfonyl}-2-(hydroxyamino)-2-oxoethyl]-1-piperidine carboxylate] | 52 | 22 |  |  | 50 | IC50 [1, 2]: 190 nM
CC#CCOc1ccc(S(=O)(=O)C(C(=O)NO)C2CCNCC2)cc1 (stereo not drawn) [Example 118, 2-{[4-(2-butynyloxy)phenyl]sulfonyl}-N-hydroxy-2-(4-piperidinyl) acetamide] | 69.5 | 23.8 |  |  | 24 | IC50 [1, 2]: 299 nM
